Experimental data from the supplement of paper PMC10307832.

Legend:
Test in all cases: relative viability (nuclei count vs DMSO), 5 days (fraction); higher = more cells survive
201T = system: 201T
Method in brief: (§1)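 The day after seeding in 1536-well plates, lung cancer cell lines were treated by pin tool with a single drug, or with a fixed anchor-drug dose together with five library-drug doses (not always all listed) in √10 steps. After 5 days, a combined fix-and-stain solution (final 0.05% Triton X-100, 1% formaldehyde, 1 ug/ml Hoechst) was added. Nuclei counted on 4× images gave relative viability as treated counts over vehicle counts, reported as the median of duplicate plates.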

Calu-6 = system: Calu-6
Method in brief: as §1

EBC-1 = system: EBC-1
Method in brief: as §1

EMC-BAC-2 = system: EMC-BAC-2
Method in brief: as §1

EPLC-272H = system: EPLC-272H
Method in brief: as §1

HCC-78 = system: HCC-78
Method in brief: as §1

IA-LM = system: IA-LM
Method in brief: as §1

LCLC-103H = system: LCLC-103H
Method in brief: as §1

NCI-H1355 = system: NCI-H1355
Method in brief: as §1

NCI-H1666 = system: NCI-H1666
Method in brief: as §1

NCI-H1755 = system: NCI-H1755
Method in brief: as §1

NCI-H1792 = system: NCI-H1792
Method in brief: as §1

NCI-H1793 = system: NCI-H1793
Method in brief: as §1

NCI-H1975 = system: NCI-H1975
Method in brief: as §1

NCI-H2126 = system: NCI-H2126
Method in brief: as §1

NCI-H2170 = system: NCI-H2170
Method in brief: as §1

NCI-H2228 = system: NCI-H2228
Method in brief: as §1

NCI-H2342 = system: NCI-H2342
Method in brief: as §1

NCI-H441 = system: NCI-H441
Method in brief: as §1

NCI-H520 = system: NCI-H520
Method in brief: as §1

NCI-H727 = system: NCI-H727
Method in brief: as §1

NCI-H838 = system: NCI-H838
Method in brief: as §1

PC-3 [JPC-3] = system: PC-3 [JPC-3]
Method in brief: as §1

SK-MES-1 = system: SK-MES-1
Method in brief: as §1

SW 1573 = system: SW 1573
Method in brief: as §1

## Nc1cccc2c1CN(C1CCC(=O)NC1=O)C2=O (stereo not drawn) [Lenalidomide] + O=C(c1cc(Cc2n[nH]c(=O)c3ccccc23)ccc1F)N1CCN(C(=O)C2CC2)CC1 [Olaparib] (partner 8 µM)
201T; first compound 0.253 µM
  relative viability: 0.847
201T; first compound 0.8 µM
  relative viability: 0.865
201T; first compound 2.53 µM
  relative viability: 0.864
201T; first compound 8 µM
  relative viability: 0.92
Calu-6; first compound 0.253 µM
  relative viability: 0.547
Calu-6; first compound 0.8 µM
  relative viability: 0.591
Calu-6; first compound 2.53 µM
  relative viability: 0.674
Calu-6; first compound 8 µM
  relative viability: 0.799
EBC-1; first compound 0.253 µM
  relative viability: 0.708
EBC-1; first compound 0.8 µM
  relative viability: 0.603
EBC-1; first compound 2.53 µM
  relative viability: 0.823
EBC-1; first compound 8 µM
  relative viability: 0.691
EMC-BAC-2; first compound 0.253 µM
  relative viability: 0.479
EMC-BAC-2; first compound 0.8 µM
  relative viability: 0.395
EMC-BAC-2; first compound 2.53 µM
  relative viability: 0.52
EMC-BAC-2; first compound 8 µM
  relative viability: 0.461
EPLC-272H; first compound 0.253 µM
  relative viability: 0.777
EPLC-272H; first compound 2.53 µM
  relative viability: 0.613
EPLC-272H; first compound 8 µM
  relative viability: 0.657
HCC-78; first compound 0.253 µM
  relative viability: 0.861
HCC-78; first compound 0.8 µM
  relative viability: 0.858
HCC-78; first compound 2.53 µM
  relative viability: 0.87
HCC-78; first compound 8 µM
  relative viability: 0.814
IA-LM; first compound 0.253 µM
  relative viability: 0.874
IA-LM; first compound 0.8 µM
  relative viability: 0.799
IA-LM; first compound 2.53 µM
  relative viability: 0.777
IA-LM; first compound 8 µM
  relative viability: 0.728
LCLC-103H; first compound 0.253 µM
  relative viability: 0.718
LCLC-103H; first compound 0.8 µM
  relative viability: 0.667
LCLC-103H; first compound 2.53 µM
  relative viability: 0.76
LCLC-103H; first compound 8 µM
  relative viability: 0.741
NCI-H1355; first compound 0.253 µM
  relative viability: 0.756
NCI-H1355; first compound 0.8 µM
  relative viability: 0.5
NCI-H1355; first compound 2.53 µM
  relative viability: 0.857
NCI-H1355; first compound 8 µM
  relative viability: 0.709
NCI-H1666; first compound 0.253 µM
  relative viability: 0.781
NCI-H1666; first compound 0.8 µM
  relative viability: 0.717
NCI-H1666; first compound 2.53 µM
  relative viability: 0.776
NCI-H1666; first compound 8 µM
  relative viability: 0.759
NCI-H1755; first compound 0.253 µM
  relative viability: 0.86
NCI-H1755; first compound 0.8 µM
  relative viability: 0.861
NCI-H1755; first compound 2.53 µM
  relative viability: 0.899
NCI-H1755; first compound 8 µM
  relative viability: 0.777
NCI-H1792; first compound 0.253 µM
  relative viability: 0.609
NCI-H1792; first compound 0.8 µM
  relative viability: 0.378
NCI-H1792; first compound 2.53 µM
  relative viability: 0.588
NCI-H1792; first compound 8 µM
  relative viability: 0.485
NCI-H1793; first compound 0.253 µM
  relative viability: 0.863
NCI-H1793; first compound 2.53 µM
  relative viability: 1.07
NCI-H1793; first compound 8 µM
  relative viability: 0.539
NCI-H1975; first compound 0.253 µM
  relative viability: 0.912
NCI-H1975; first compound 0.8 µM
  relative viability: 0.694
NCI-H1975; first compound 2.53 µM
  relative viability: 0.876
NCI-H1975; first compound 8 µM
  relative viability: 0.995
NCI-H2126; first compound 0.253 µM
  relative viability: 0.934
NCI-H2126; first compound 0.8 µM
  relative viability: 0.857
NCI-H2126; first compound 2.53 µM
  relative viability: 0.983
NCI-H2126; first compound 8 µM
  relative viability: 0.854
NCI-H2170; first compound 0.253 µM
  relative viability: 0.57
NCI-H2170; first compound 0.8 µM
  relative viability: 0.611
NCI-H2170; first compound 2.53 µM
  relative viability: 0.67
NCI-H2170; first compound 8 µM
  relative viability: 0.553
NCI-H2228; first compound 0.253 µM
  relative viability: 0.544
NCI-H2228; first compound 0.8 µM
  relative viability: 0.502
NCI-H2228; first compound 2.53 µM
  relative viability: 0.753
NCI-H2228; first compound 8 µM
  relative viability: 0.583
NCI-H2342; first compound 0.253 µM
  relative viability: 0.464
NCI-H2342; first compound 0.8 µM
  relative viability: 0.415
NCI-H2342; first compound 2.53 µM
  relative viability: 0.437
NCI-H2342; first compound 8 µM
  relative viability: 0.399
NCI-H441; first compound 0.253 µM
  relative viability: 0.471
NCI-H441; first compound 0.8 µM
  relative viability: 0.502
NCI-H441; first compound 2.53 µM
  relative viability: 0.625
NCI-H441; first compound 8 µM
  relative viability: 0.577
NCI-H520; first compound 0.253 µM
  relative viability: 0.368
NCI-H520; first compound 0.8 µM
  relative viability: 0.359
NCI-H520; first compound 2.53 µM
  relative viability: 0.375
NCI-H520; first compound 8 µM
  relative viability: 0.35
NCI-H727; first compound 0.253 µM
  relative viability: 0.732
NCI-H727; first compound 0.8 µM
  relative viability: 0.706
NCI-H727; first compound 2.53 µM
  relative viability: 0.633
NCI-H727; first compound 8 µM
  relative viability: 0.7
NCI-H838; first compound 0.253 µM
  relative viability: 0.75
NCI-H838; first compound 0.8 µM
  relative viability: 0.774
NCI-H838; first compound 2.53 µM
  relative viability: 0.781
NCI-H838; first compound 8 µM
  relative viability: 0.79
PC-3 [JPC-3]; first compound 0.253 µM
  relative viability: 1.12
PC-3 [JPC-3]; first compound 0.8 µM
  relative viability: 1.1
PC-3 [JPC-3]; first compound 2.53 µM
  relative viability: 1.32
PC-3 [JPC-3]; first compound 8 µM
  relative viability: 1.38
SK-MES-1; first compound 0.253 µM
  relative viability: 0.717
SK-MES-1; first compound 0.8 µM
  relative viability: 0.691
SK-MES-1; first compound 2.53 µM
  relative viability: 0.715
SK-MES-1; first compound 8 µM
  relative viability: 0.806
SW 1573; first compound 0.253 µM
  relative viability: 0.492
SW 1573; first compound 0.8 µM
  relative viability: 0.545
SW 1573; first compound 2.53 µM
  relative viability: 0.468
SW 1573; first compound 8 µM
  relative viability: 0.606
